From ChEMBL document CHEMBL1130802, “Design and synthesis of a new type of non steroidal human aromatase inhibitors” (Bioorg Med Chem Lett, 1998)
pIC50, pKi: −log10 of the molar value.

Key:
Aromatase [1] = molecular target: T1, Aromatase (Homo sapiens, UniProt P11511)
T1 sequence (P11511 whole entry): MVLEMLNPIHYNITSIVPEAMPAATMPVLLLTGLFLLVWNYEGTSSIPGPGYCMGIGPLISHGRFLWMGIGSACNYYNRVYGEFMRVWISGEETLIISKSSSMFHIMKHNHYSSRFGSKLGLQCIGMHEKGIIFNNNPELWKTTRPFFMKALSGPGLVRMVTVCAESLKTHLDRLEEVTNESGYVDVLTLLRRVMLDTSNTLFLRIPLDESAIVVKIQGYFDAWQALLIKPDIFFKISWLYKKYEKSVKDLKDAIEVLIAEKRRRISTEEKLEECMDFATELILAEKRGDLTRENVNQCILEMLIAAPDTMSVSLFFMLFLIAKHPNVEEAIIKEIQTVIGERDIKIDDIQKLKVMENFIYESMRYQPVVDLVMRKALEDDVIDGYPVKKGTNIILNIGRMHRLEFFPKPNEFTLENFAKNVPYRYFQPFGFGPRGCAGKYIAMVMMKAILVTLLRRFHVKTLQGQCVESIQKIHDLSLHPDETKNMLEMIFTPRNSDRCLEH
Description: Inhibition of human aromatase cytochrome P450 19A1 activity

Aromatase [2] = molecular target: T1, Aromatase; remark: listed apart in the source
Description: Inhibition constant for human aromatase cytochrome P450 19A1 activity

- pIC50 (Aromatase [1]): 6.10
- pKi (Aromatase [2]): 7.99
Structure (SMILES): O=C1/C(=C\c2ccncc2)C(c2ccccc2)c2ccccc21 (configuration not stated)
